The subject of the test is mice. As to the kind of experiment: SmartCube in vivo neuropharmacological behavioral assay. To be noted: for minimal effective dose: Mus musculus, ip, dose having 50% or more total activity in SmartCube, i.p., read-out: MED (minimal effective dose); for AD: antidepressant, percent probability / AG: analgesic, percent probability / AP: antipsychotic, percent probability / AX: anxiolytic, percent probability / CE: cognitive enhancer, percent probability / HA: hallucinogenic, percent probability / MS: mood stabilizer, percent probability / PS, percent probability / SD: sedative hypnotic, percent probability / SE: side effects, percent probability / UN: uncharacterized CNS activity, percent probability / XG: anxiogenic, percent probability: SmartCube, i.p. 15 min before test, at the MED. The procedure: The compounds were evaluated for their CNS related properties (e.g., the treatment, prevention or diagnosis of CNS or CNS-related disorders and/or amelioration of symptoms) using neuropharmacological screening methods described in S. L. Roberts et al., Front. Neurosci. 2011, 5:103 (hereinafter referred to as “Roberts,” the contents of which are incorporated herein by reference in their entirety).
According to Roberts, intact systems are useful in detecting improvement in disease-relevant endpoints, because psychiatric diseases generally result from disorders of cell-cell communication or circuitry. The endpoints are typically behavioral in nature, often requiring human observation and interpretation. In order to test multiple compounds for behavioral effects relevant to neurological and psychiatric diseases and disorders, PsychoGenics, Inc. (Paramus, N.J. “PGI”) developed SmartCube®, an automated system in which behaviors of compound-treated mice are captured by digital video and analyzed with computer algorithms to facilitate testing of multiple compounds for behavioral effects relevant to psychiatric disease. (D. Brunner et al., Drug Discov. Today 2002, 7:S107-S112; Alexandrov et al., Eur. J. Pharmacol. 2015, 753:127-134; the contents of each of which are incorporated herein by reference in their entirety).
The SmartCube® system is described in Example 2.2 of U.S. Pat. No. 9,758,529 and Example 289 of WIPO Publication No. WO2018/023070, the contents of each of which are incorporated herein by reference in their entirety.
According to the present disclosure, compounds identified may be evaluated using the SmartCube® system. The results of such analysis correlate certain patterns or combinations of behaviors to CNS effects along a percent probability scale of 0-100 where zero (O) reflects the limit of quantitation (LOQ).
The compounds of the present disclosure were evaluated for their CNS related properties (e.g., the treatment, prevention or diagnosis of CNS or CNS-related disorders and/or amelioration of symptoms) using neuropharmacological screening methods described in S. L. Roberts et al., Front. Neurosci. 2011, 5:103 (hereinafter referred to as “Roberts,” the contents of which are incorporated herein by reference in their entirety).
The SmartCube® system described herein was utilized to compare the behavioral signature of a test compound to a database of behavioral signatures obtained using a large set of diverse reference compounds (including but not limited to antipsychotics, anxiolytics, antidepressants and bipolar disorder medicine), thereby predicting the neuropharmacological effects of a test compound by similarity to major classes of compounds. It produces an activity signature indicating the probability that the activity of the test compound at the administered dose matches a given class of neuropharmacological agents. The test compound is simultaneously compared against multiple classes of agents; thus, a separate probability is generated for each behavioral effect measured (such as but not limited to anxiolytic activity and analgesic activity).
The compounds of the present disclosure were dissolved in a mixture of Pharmasolve™ (N-methyl-2-pyrrolidone (NMP)) and were injected i.p. 15 min. before the behavioral test. For each compound, injections were administered at different dose levels (e.g., 0.3, 1, 3, 10 and 30 mg per kg (mpk)). A compound's minimal effective dose (MED; see Table 3) is a measure of the compound's potency. The MED was defined as the dose (in mpk) having 50% or more total activity in SmartCube®. For each behavioral effect measured, results at the MED are presented. CNS activities of the compounds were recorded (see Table 2). In Table 1, a key to the percent probabilities (probability×100) for each behavioral effect (“X”) are defined provided, where LOQ is the limit of quantification.

Structures can show the parent of a compound that is named as a salt. Some results are limits rather than exact numbers.

`COCC(C)N1C2C=CC1c1ccccc12` (centres unmarked) [Compound 57, 11-(1-Methoxypropan-2-yl)-11-azatricyclo[6.2.1.0^2,7]undeca-2,4,6,9-tetraene hydrochloride]: the minimal effective dose (as a rule, the smallest amount tested that counted as effective) was above 30 mg/kg; the “AD: antidepressant, percent probability” value is “++ (5% ≤ X < 25%)”; the “AG: analgesic, percent probability” value is listed as “+ (LOQ ≤ X < 5%)”; the “AP: antipsychotic, percent probability” value is “+ (LOQ ≤ X < 5%)”. In addition, the “AX: anxiolytic, percent probability” value is “+ (LOQ ≤ X < 5%)”; the “CE: cognitive enhancer, percent probability” value is on record as “+ (LOQ ≤ X < 5%)”; the “HA: hallucinogenic, percent probability” value is “+ (LOQ ≤ X < 5%)”; the “MS: mood stabilizer, percent probability” value is listed as “+ (LOQ ≤ X < 5%)”. The “PS, percent probability” value is recorded as “+ (LOQ ≤ X < 5%)”; the “SD: sedative hypnotic, percent probability” value (from here on “SD … percent probability”) is on record as “+ (LOQ ≤ X < 5%)”; the “SE: side effects, percent probability” value is on record as “+ (LOQ ≤ X < 5%)”; the “UN: uncharacterized CNS activity, percent probability” value (“UN … percent probability” for short) is on record as “+ (LOQ ≤ X < 5%)”. Also, the “XG: anxiogenic, percent probability” value is on record as “+ (LOQ ≤ X < 5%)”.

For `CC1C(C)C2c3ccccc3C1N2C(C)C` (centres unmarked) [Compound 49, 9,10-Dimethyl-11-(propan-2-yl)-11-azatricyclo[6.2.1.0^2,7]undeca-2,4,6-triene hydrochloride], the minimal effective dose lay in the range of 10 to 30 mg/kg.

Regarding `CC(C)N1C2CCC1c1c(F)ccc(F)c12` [Compound 34, 3,6-Difluoro-11-(propan-2-yl)-11-azatricyclo[6.2.1.0^2,7]undeca-2,4,6-triene hydrochloride], the minimal effective dose is above 30 mg/kg; the “AD: antidepressant, percent probability” value was “+ (LOQ ≤ X < 5%)”; the “AG: analgesic, percent probability” value is listed as “+ (LOQ ≤ X < 5%)”; the “AP: antipsychotic, percent probability” value is “+ (LOQ ≤ X < 5%)”. Further, the “AX: anxiolytic, percent probability” value was “+ (LOQ ≤ X < 5%)”; the “CE: cognitive enhancer, percent probability” value is “+ (LOQ ≤ X < 5%)”; the “HA: hallucinogenic, percent probability” value was “+ (LOQ ≤ X < 5%)”; the “MS: mood stabilizer, percent probability” value is recorded as “+ (LOQ ≤ X < 5%)”. In addition, the “PS, percent probability” value is reported as “+ (LOQ ≤ X < 5%)”; the “SD … percent probability” value is given as “+ (LOQ ≤ X < 5%)”; the “SE: side effects, percent probability” value is given as “+ (LOQ ≤ X < 5%)”; the “UN … percent probability” value was “+ (LOQ ≤ X < 5%)”. For the same compound, the “XG: anxiogenic, percent probability” value was “+ (LOQ ≤ X < 5%)”.

As for `COc1cccc2c1C1CCC2N1C(C)C` (centres unmarked) [Compound 18, 3-Methoxy-11-(propan-2-yl)-11-azatricyclo[6.2.1.0^2,7]undeca-2,4,6-triene hydrochloride], the minimal effective dose fell in the range of 10 to 30 mg/kg; the “AD: antidepressant, percent probability” value was “++ (5% ≤ X < 25%)”; the “AG: analgesic, percent probability” value is given as “+ (LOQ ≤ X < 5%)”; the “AP: antipsychotic, percent probability” value is listed as “+ (LOQ ≤ X < 5%)”. The “AX: anxiolytic, percent probability” value is recorded as “++ (5% ≤ X < 25%)”; the “CE: cognitive enhancer, percent probability” value is recorded as “++ (5% ≤ X < 25%)”; the “HA: hallucinogenic, percent probability” value is recorded as “+ (LOQ ≤ X < 5%)”; the “MS: mood stabilizer, percent probability” value is “+ (LOQ ≤ X < 5%)”. Further, the “PS, percent probability” value was “+ (LOQ ≤ X < 5%)”; the “SD … percent probability” value is on record as “++ (5% ≤ X < 25%)”; the “SE: side effects, percent probability” value is recorded as “+++ (25% ≤ X < 50%)”; the “UN … percent probability” value is “+ (LOQ ≤ X < 5%)”. In addition, the “XG: anxiogenic, percent probability” value was “+ (LOQ ≤ X < 5%)”.

`CC1=C(C)C2NC1c1ccccc12` [Compound 59, 9,10-Dimethyl-11-azatricyclo[6.2.1.0^2,7]undeca-2,4,6,9-tetraene hydrochloride]: the minimal effective dose fell in the range of 10 to 30 mg/kg; the “AD: antidepressant, percent probability” value is recorded as “++++ (50% ≤ X <1 00%)”; the “AG: analgesic, percent probability” value is “+ (LOQ ≤ X < 5%)”; the “AP: antipsychotic, percent probability” value is “+ (LOQ ≤ X < 5%)”. Moreover, the “AX: anxiolytic, percent probability” value is given as “++ (5% ≤ X < 25%)”; the “CE: cognitive enhancer, percent probability” value was “++ (5% ≤ X < 25%)”; the “HA: hallucinogenic, percent probability” value was “++ (5% ≤ X < 25%)”; the “MS: mood stabilizer, percent probability” value is listed as “+ (LOQ ≤ X < 5%)”. For the same compound, the “PS, percent probability” value was “+ (LOQ ≤ X < 5%)”; the “SD … percent probability” value was “+ (LOQ ≤ X < 5%)”; the “SE: side effects, percent probability” value is “+ (LOQ ≤ X < 5%)”; the “UN … percent probability” value is “+ (LOQ ≤ X < 5%)”. Further, the “XG: anxiogenic, percent probability” value is “+ (LOQ ≤ X < 5%)”.

As to `CC1=CC2NC1c1ccccc12` (centres unmarked) [Compound 61, 9-Methyl-11-azatricyclo[6.2.1.0^2,7]undeca-2,4,6,9-tetraene hydrochloride], the minimal effective dose was above 30 mg/kg; the “AD: antidepressant, percent probability” value was “++ (5% ≤ X < 25%)”; the “AG: analgesic, percent probability” value is “++ (5% ≤ X < 25%)”; the “AP: antipsychotic, percent probability” value is listed as “+ (LOQ ≤ X < 5%)”. In addition, the “AX: anxiolytic, percent probability” value was “+ (LOQ ≤ X < 5%)”; the “CE: cognitive enhancer, percent probability” value is on record as “+ (LOQ ≤ X < 5%)”; the “HA: hallucinogenic, percent probability” value is “+ (LOQ ≤ X < 5%)”; the “MS: mood stabilizer, percent probability” value is given as “+ (LOQ ≤ X < 5%)”. For the same compound, the “PS, percent probability” value is given as “+ (LOQ ≤ X < 5%)”; the “SD … percent probability” value is “+ (LOQ ≤ X < 5%)”; the “SE: side effects, percent probability” value was “+ (LOQ ≤ X < 5%)”; the “UN … percent probability” value was “+ (LOQ ≤ X < 5%)”. Also, the “XG: anxiogenic, percent probability” value was “+ (LOQ ≤ X < 5%)”.

On to `CC1=CC2c3ccccc3C1N2C(C)C` (centres unmarked) [Compound 62, 9-Methyl-11-(propan-2-yl)-11-azatricyclo[6.2.1.0^2,7]undeca-2,4,6,9-tetraene hydrochloride], for which the minimal effective dose lay within 1 to 10 mg/kg; the “AD: antidepressant, percent probability” value is “++ (5% ≤ X < 25%)”; the “AG: analgesic, percent probability” value is recorded as “++ (5% ≤ X < 25%)”; the “AP: antipsychotic, percent probability” value is reported as “+ (LOQ ≤ X < 5%)”. Moreover, the “AX: anxiolytic, percent probability” value is given as “++ (5% ≤ X < 25%)”; the “CE: cognitive enhancer, percent probability” value is given as “+ (LOQ ≤ X < 5%)”; the “HA: hallucinogenic, percent probability” value is reported as “+ (LOQ ≤ X < 5%)”; the “MS: mood stabilizer, percent probability” value is “+ (LOQ ≤ X < 5%)”. For the same compound, the “PS, percent probability” value is reported as “+ (LOQ ≤ X < 5%)”; the “SD … percent probability” value is “+ (LOQ ≤ X < 5%)”; the “SE: side effects, percent probability” value is recorded as “+ (LOQ ≤ X < 5%)”; the “UN … percent probability” value was “++ (5% ≤ X < 25%)”. For the same compound, the “XG: anxiogenic, percent probability” value is reported as “+ (LOQ ≤ X < 5%)”.

For `c1ccc2c(c1)C1CCC2N1` [Compound 41, hydrochloride], the minimal effective dose fell in the range of 10 to 30 mg/kg; the “AD: antidepressant, percent probability” value is reported as “+ (LOQ ≤ X < 5%)”; the “AG: analgesic, percent probability” value is listed as “++ (5% ≤ X < 25%)”; the “AP: antipsychotic, percent probability” value is recorded as “+ (LOQ ≤ X < 5%)”. Further, the “AX: anxiolytic, percent probability” value is “++ (5% ≤ X < 25%)”; the “CE: cognitive enhancer, percent probability” value is “++ (5% ≤ X < 25%)”; the “HA: hallucinogenic, percent probability” value is given as “+ (LOQ ≤ X < 5%)”; the “MS: mood stabilizer, percent probability” value is recorded as “+ (LOQ ≤ X < 5%)”. Further, the “PS, percent probability” value is reported as “+ (LOQ ≤ X < 5%)”; the “SD … percent probability” value is on record as “+ (LOQ ≤ X < 5%)”; the “SE: side effects, percent probability” value was “+ (LOQ ≤ X < 5%)”; the “UN … percent probability” value is recorded as “++ (5% ≤ X < 25%)”. The “XG: anxiogenic, percent probability” value was “+ (LOQ ≤ X < 5%)”.

These data come from US20230109801A1 (Blue Oak Pharmaceuticals, Inc., priority 2020, published 2023).
